Drawing on patent US20150005311A1, “IP receptor agonist heterocyclic compounds” (NOVARTIS AG, priority 2012, published 2015), this text covers EC50 for eight molecules.

Molecules are shown by their SMILES.

For this experiment, the target named is T1, IP receptor (Homo sapiens, UniProt P43119).
T1 construct: expressed in transfected cells; host or cells: CHO cells stably expressing the IP receptor (CHO-IP)
T1 sequence (P43119 whole entry): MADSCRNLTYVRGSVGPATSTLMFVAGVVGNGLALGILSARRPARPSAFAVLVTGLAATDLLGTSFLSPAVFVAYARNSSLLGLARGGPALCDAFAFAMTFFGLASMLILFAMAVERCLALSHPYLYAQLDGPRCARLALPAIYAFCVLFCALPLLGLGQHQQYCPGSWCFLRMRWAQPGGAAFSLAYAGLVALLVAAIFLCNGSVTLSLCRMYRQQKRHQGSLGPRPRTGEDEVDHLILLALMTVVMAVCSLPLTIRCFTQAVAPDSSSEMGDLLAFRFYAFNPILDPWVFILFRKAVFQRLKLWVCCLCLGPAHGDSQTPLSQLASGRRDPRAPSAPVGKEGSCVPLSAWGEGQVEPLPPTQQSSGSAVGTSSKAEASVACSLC
Put plainly: cAMP accumulation in CHO cells stably expressing the IP receptor (CHO-IP), PerkinElmer AlphaScreen assay. The class given is cell-based. Particulars: 1 hour at room temperature, 4-parameter logistic fit. As to the method: Activity of compounds at the IP receptor (IP receptor) is assessed by measuring cAMP accumulation in CHO cells stably expressing the IP receptor (CHO-IP) using the PerkinElmer AlphaScreen assay. This technology measures the endogenous production of cAMP, in a non-radioactive luminescence proximity homogenous assay. A biological reaction occurs between streptavidin coated donor beads, biotinylated cAMP and anti-cAMP acceptor beads, bringing the donor and acceptor beads close enough together so that upon excitation a fluorescence signal is produced. On production of endogenous cAMP, competition between the biotinylated cAMP and cellular-derived cAMP causes a reduction in the fluorescent signal. The reduction in signal is proportional to the amount of cAMP being produced, thus it is possible to quantify the amount of cAMP being produced on stimulation with agonist.
Test and reference compounds are prepared at 100×[final] in 100% DMSO, and diluted 1:3 using a Biomek Fx (Beckman Coulter). This is followed by an intermediate dilution to give 5×[final] in assay buffer (HBSS containing 5 mM HEPES, 0.1% (w/v) BSA). 5 μL of 5×[final] test compounds, reference compounds and buffer/DMSO control are then transferred to a 384-well white OptiPlate, containing 20 μL CHO-IP cell suspension (15,000 cells/well, prepared from frozen), and plate is incubated at room temperature for 1 hour. A cAMP standard curve is constructed for each experiment (concentration range of 10000 nM to 0.001 nM, in assay buffer) and 25 μL of each concentration added to the last two columns of the assay plate. The incubation is terminated by the addition of lysis buffer (dH2O; 0.3% (v v^−1) Tween-20) containing 20 units mL^−1 streptavidin coated donor beads and biotinylated cAMP (pre-incubated for 30 minutes) and 20 units mL^−1 anti-cAMP acceptor beads, which are added to the lysis buffer just before addition to the assay plate. The assay plate is then incubated at room temperature in the dark, for 60 minutes with gentle shaking, and read on the Envision plate reader (Perkin Elmer).
The raw data of the reference compounds, test compounds and controls are converted into cAMP concentrations, using the cAMP standard curve, in GraphPadPrism (GraphPad Software Inc). EC50 as well as maximal values of the agonist curves are determined using a 4-parameter logistic equation. The % maximum response values of all test compounds are determined using the top of the treprostinil concentration-response curve.
One may read the EC50 as the concentration that produces a half-maximal response. With `Cc1ccc(-c2nc3c(nc2-c2ccc(C)cc2)N(CCCCCc2nnn[nH]2)CC(O)C3)cc1` (racemic) [Example 4, rac-5-(5-(1H-Tetrazol-5-yl)pentyl)-2,3-di-p-tolyl-5,6,7,8-tetrahydropyrido[3,2-b]pyrazin-7-ol], a half-maximal response (EC50) required 5.63 nM.
`Cc1ccc(-c2nc3c(nc2-c2ccc(C)cc2)N(CCCCCc2nnn[nH]2)CCC3)cc1` [Example 2, 5-(5-(1H-tetrazol-5-yl)pentyl)-2,3-di-p-tolyl-5,6,7,8-tetrahydropyrido[2,3-b]pyrazine]: a half-maximal response (EC50) required 0.07 nM.
Next, `Cc1ccc(-c2nc3c(nc2-c2ccc(C)cc2)N(CCCCCCc2nnn[nH]2)CC(O)C3)cc1` (single isomer, unassigned) [Example 3a, (R)- or (S)-5-(6-(1H-tetrazol-5-yl)hexyl)-2,3-di-p-tolyl-5,6,7,8-tetrahydropyrido[2,3-b]pyrazin-7-ol]]: 2.06 nM.
Next, `Cc1ccc(-c2nc3c(nc2-c2ccc(C)cc2)N(CCCCCCc2nnn[nH]2)CCC3)cc1` [Example 1, 5-(6-(1H-Tetrazol-5-yl)hexyl)-2,3-di-p-tolyl-5,6,7,8-tetrahydropyrido[2,3-b]pyrazine]: 0.11 nM.
In the case of `Cc1ccc(-c2nc3c(nc2-c2ccc(C)cc2)N(CCCCCc2nnn[nH]2)CC(O)C3)cc1` (single isomer, unassigned) [Example 4a, (R)- or (S)-5-(5-(1H-Tetrazol-5-yl)pentyl)-2,3-di-p-tolyl-5,6,7,8-tetrahydropyrido[2,3-b]pyrazin-7-ol]] it was 0.62 nM; in that of `Cc1ccc(-c2nc3c(nc2-c2ccc(C)cc2)N(CCCCCCc2nnn[nH]2)CC(O)C3)cc1` (single isomer, unassigned) [Example 3b, (R)- or (S)-5-(6-(1H-tetrazol-5-yl)hexyl)-2,3-di-p-tolyl-5,6,7,8-tetrahydropyrido[2,3-b]pyrazin-7-ol]], 1.71 nM.
Regarding `Cc1ccc(-c2nc3c(nc2-c2ccc(C)cc2)N(CCCCCCc2nnn[nH]2)CC(O)C3)cc1` (racemic) [Example 3, rac-5-(6-(1H-Tetrazol-5-yl)hexyl)-2,3-di-p-tolyl-5,6,7,8-tetrahydropyrido[2,3-b]pyrazin-7-ol], it took 0.04 nM to reach a half-maximal effect (EC50).
In the case of `Cc1ccc(-c2nc3c(nc2-c2ccc(C)cc2)N(CCCCCc2nnn[nH]2)CC(O)C3)cc1` (single isomer, unassigned) [Example 4b, (R)- or (S)-5-(5-(1H-Tetrazol-5-yl)pentyl)-2,3-di-p-tolyl-5,6,7,8-tetrahydropyrido[2,3-b]pyrazin-7-ol]] it was 0.86 nM.
